Data on one molecule can be found in patent publication US5157052A, “Method for inhibiting IgE production” (priority 1990, dated 1992).

Structures are written as SMILES.

For this assay, the system named is IgE. Briefly: Secondary antigen-specific IgE response to TNP-KLH on alum. The format is in vivo, mouse (Balb/c female). As to conditions: 20 μg IP 3x daily days 24 and 25. On the procedure:
ELISA (enzyme linked immunosorbant assay) measurements of IgE are as follows. About 5 μg of B1E3 antibody in 100 μl borate buffered saline (pH8.5) is added to wells of a NuncImmulon II 96 well plate (DiRuscio & Assoc., St. Louis, Mo.) at 37° C. for 90 minutes. The non-bound antibody is removed by flicking the plate. Unreacted sites on the plastic plate are blocked by adding about 200 μl of a 2% solution of newborn bovine serum (NBS) in PBS at 37° C. for 60 minutes. The standard IgE (or an unknown murine serum sample) is diluted to between about 4 ng/ml-256 ng/ml in Hanks-HS (20 mM Hepes, 2% NBS in Hanks Balanced Salt Solution, Gibco, Grand Island, N.Y.) or to 1/200 to 1/1000 in Hanks-HS respectively. 100 μl of standard (or unknown dilutions) are added in triplicate to the wells of the plate and allowed to absorb to B1E3 antibody at about 37° C. for 2-4 hours. The solution is removed by flicking the plate and each well is washed with about 0.5 ml 0.05% Tween 20-PBS 5 times. About 100 μl of biotinylated R1E4, called the primary antibody, diluted to 200 ng/ml is added to all wells and incubated at about 4° C. overnight. The solution is removed by flicking the plate and washed 5 times as described above. The developing reagent (Avidin and biotin-horse radish peroxidase) is incubated in 2% NBS in PBS at ambient temperature for 30 minutes, according to manufacturer's specifications (Vector Laboratories, Burlingame, Calif.). About 100 μl of developing reagent is added to each well and incubated at ambient temperature for 30 minutes. Colorimetric substrate for the developing reagent (ABTS peroxidase substrate system, KPL, Gaithersburg, Md.) is prepared by mixing equal volumes of solutions A and B and incubating at ambient temperature for 60 minutes. The developing reagent solution is removed by flicking the plate and washed 5 times as described above. About 100 μl of the mixture of substrates is added to each well and incubated at ambient temperature for 60 minutes. The optical density of each well is determined on a BioTek ELISA reader (Biotek Instruments, Inc., Burlington, Vermont) and the absorbance data transferred electronically to a DEC VAX mainframe computer. A standard curve is fitted to the IgE standard optical densities using straight line, linear regression statistical fits. IgE in the unknown serum samples is determined by comparing the optical density of the unknown to the standard curve and multiplying that number by the dilution of serum used in the assay.
Stimulation of a secondary antigen-specific IgE response in mouse with haptenated antigen absorbed on alum is inhibited by (±) methyl 11α,16-dihydroxy-16-methyl-9-oxoprosta-5Z,13E-dien-1-oate. Three groups of 7 Balb/c female mice were treated as follows. […]

`CCCCC(C)(O)C/C=C/[C@H]1[C@H](O)CC(=O)[C@@H]1C/C=C\CCCC(=O)OC` (mixture of isomers) [(±) methyl 11α,16-dihydroxy-16-methyl-9-oxoprosta-5Z,13E-dien-1-oate]: the “secondary IgE response” value is on record as “inhibited from the synthesis of a secondary IgE response”. Moreover, the “IgE ± SD” value (day 28, p < .02 (boosted control 28,568)) is given as 14,448 ± 4926 ng/ml. In addition, the “IgE ± SD” value (day 30, p < .016 (boosted control 22,564)) was found to be 7564 ± 1528 ng/mL. The “IgE ± SD” value (day -1 baseline before treatment) came to 1487 ± 138 ng/mL.
